Experimental data reported in the NIST ThermoML archive (doi:10.1016/j.fluid.2016.02.009).
Numbers after ± are expanded uncertainties.

Conditions: Liquid, Vibrating tube method

CCCCCOCCCCC [dipentyl ether]
Conditions | mass density [kg/m3]
283.15 K, 100 kPa | 790.99 ± 0.29
283.15 K, 5000 kPa | 794.85 ± 0.32
283.15 K, 10000 kPa | 798.47 ± 0.35
283.15 K, 15000 kPa | 801.9 ± 0.38
283.15 K, 20000 kPa | 805.2 ± 0.41
283.15 K, 25000 kPa | 808.38 ± 0.43
283.15 K, 30000 kPa | 811.47 ± 0.46
283.15 K, 35000 kPa | 814.44 ± 0.49
283.15 K, 40000 kPa | 817.31 ± 0.52
283.15 K, 45000 kPa | 820.12 ± 0.55
283.15 K, 50000 kPa | 822.84 ± 0.58
283.15 K, 55000 kPa | 825.48 ± 0.61
283.15 K, 60000 kPa | 828.06 ± 0.63
283.15 K, 65000 kPa | 830.58 ± 0.66
288.15 K, 100 kPa | 786.98 ± 0.3
288.15 K, 5000 kPa | 790.95 ± 0.32
288.15 K, 10000 kPa | 794.65 ± 0.35
288.15 K, 15000 kPa | 798.17 ± 0.38
288.15 K, 20000 kPa | 801.55 ± 0.41
288.15 K, 25000 kPa | 804.81 ± 0.44
288.15 K, 30000 kPa | 807.94 ± 0.46
288.15 K, 35000 kPa | 810.97 ± 0.49
288.15 K, 40000 kPa | 813.93 ± 0.52
288.15 K, 45000 kPa | 816.78 ± 0.55
288.15 K, 50000 kPa | 819.54 ± 0.58
288.15 K, 55000 kPa | 822.24 ± 0.61
288.15 K, 60000 kPa | 824.87 ± 0.64
288.15 K, 65000 kPa | 827.41 ± 0.67
293.15 K, 100 kPa | 782.96 ± 0.3
293.15 K, 5000 kPa | 787.04 ± 0.32
293.15 K, 10000 kPa | 790.83 ± 0.35
293.15 K, 15000 kPa | 794.44 ± 0.38
293.15 K, 20000 kPa | 797.91 ± 0.41
293.15 K, 25000 kPa | 801.23 ± 0.44
293.15 K, 30000 kPa | 804.44 ± 0.47
293.15 K, 35000 kPa | 807.54 ± 0.5
293.15 K, 40000 kPa | 810.53 ± 0.53
293.15 K, 45000 kPa | 813.44 ± 0.56
293.15 K, 50000 kPa | 816.26 ± 0.59
293.15 K, 55000 kPa | 819.01 ± 0.62
293.15 K, 60000 kPa | 821.67 ± 0.65
293.15 K, 65000 kPa | 824.26 ± 0.68
298.15 K, 100 kPa | 778.94 ± 0.3
298.15 K, 5000 kPa | 783.12 ± 0.32
298.15 K, 10000 kPa | 787.02 ± 0.35
298.15 K, 15000 kPa | 790.73 ± 0.38
298.15 K, 20000 kPa | 794.27 ± 0.41
298.15 K, 25000 kPa | 797.69 ± 0.44
298.15 K, 30000 kPa | 800.97 ± 0.47
298.15 K, 35000 kPa | 804.13 ± 0.5
298.15 K, 40000 kPa | 807.2 ± 0.53
298.15 K, 45000 kPa | 810.16 ± 0.57
298.15 K, 50000 kPa | 813.04 ± 0.6
298.15 K, 55000 kPa | 815.82 ± 0.63
298.15 K, 60000 kPa | 818.54 ± 0.66
298.15 K, 65000 kPa | 821.19 ± 0.68
303.15 K, 100 kPa | 774.9 ± 0.3
303.15 K, 5000 kPa | 779.22 ± 0.32
303.15 K, 10000 kPa | 783.2 ± 0.35
303.15 K, 15000 kPa | 787 ± 0.38
303.15 K, 20000 kPa | 790.65 ± 0.41
303.15 K, 25000 kPa | 794.13 ± 0.44
303.15 K, 30000 kPa | 797.48 ± 0.47
303.15 K, 35000 kPa | 800.72 ± 0.51
303.15 K, 40000 kPa | 803.84 ± 0.54
303.15 K, 45000 kPa | 806.86 ± 0.57
303.15 K, 50000 kPa | 809.78 ± 0.6
303.15 K, 55000 kPa | 812.62 ± 0.63
303.15 K, 60000 kPa | 815.39 ± 0.66
303.15 K, 65000 kPa | 818.05 ± 0.69
308.15 K, 100 kPa | 770.87 ± 0.3
308.15 K, 5000 kPa | 775.29 ± 0.33
308.15 K, 10000 kPa | 779.38 ± 0.36
308.15 K, 15000 kPa | 783.28 ± 0.39
308.15 K, 20000 kPa | 787 ± 0.42
308.15 K, 25000 kPa | 790.57 ± 0.45
308.15 K, 30000 kPa | 793.99 ± 0.48
308.15 K, 35000 kPa | 797.3 ± 0.51
308.15 K, 40000 kPa | 800.48 ± 0.54
308.15 K, 45000 kPa | 803.56 ± 0.58
308.15 K, 50000 kPa | 806.55 ± 0.61
308.15 K, 55000 kPa | 809.43 ± 0.64
308.15 K, 60000 kPa | 812.24 ± 0.67
308.15 K, 65000 kPa | 814.95 ± 0.7
313.15 K, 100 kPa | 766.82 ± 0.3
313.15 K, 5000 kPa | 771.35 ± 0.33
313.15 K, 10000 kPa | 775.57 ± 0.36
313.15 K, 15000 kPa | 779.56 ± 0.39
313.15 K, 20000 kPa | 783.37 ± 0.42
313.15 K, 25000 kPa | 787.03 ± 0.45
313.15 K, 30000 kPa | 790.53 ± 0.48
313.15 K, 35000 kPa | 793.9 ± 0.51
313.15 K, 40000 kPa | 797.15 ± 0.55
313.15 K, 45000 kPa | 800.28 ± 0.58
313.15 K, 50000 kPa | 803.33 ± 0.62
313.15 K, 55000 kPa | 806.26 ± 0.65
313.15 K, 60000 kPa | 809.11 ± 0.68
313.15 K, 65000 kPa | 811.88 ± 0.71
318.15 K, 100 kPa | 762.76 ± 0.3
318.15 K, 5000 kPa | 767.42 ± 0.33
318.15 K, 10000 kPa | 771.74 ± 0.36
318.15 K, 15000 kPa | 775.84 ± 0.39
318.15 K, 20000 kPa | 779.77 ± 0.42
318.15 K, 25000 kPa | 783.5 ± 0.45
318.15 K, 30000 kPa | 787.08 ± 0.48
318.15 K, 35000 kPa | 790.52 ± 0.52
318.15 K, 40000 kPa | 793.82 ± 0.55
318.15 K, 45000 kPa | 797.02 ± 0.59
318.15 K, 50000 kPa | 800.1 ± 0.62
318.15 K, 55000 kPa | 803.09 ± 0.65
318.15 K, 60000 kPa | 806 ± 0.69
318.15 K, 65000 kPa | 808.83 ± 0.72
323.15 K, 100 kPa | 758.69 ± 0.3
323.15 K, 5000 kPa | 763.48 ± 0.33
323.15 K, 10000 kPa | 767.94 ± 0.36
323.15 K, 15000 kPa | 772.13 ± 0.39
323.15 K, 20000 kPa | 776.12 ± 0.42
323.15 K, 25000 kPa | 779.95 ± 0.46
323.15 K, 30000 kPa | 783.62 ± 0.49
323.15 K, 35000 kPa | 787.13 ± 0.52
323.15 K, 40000 kPa | 790.51 ± 0.56
323.15 K, 45000 kPa | 793.75 ± 0.6
323.15 K, 50000 kPa | 796.9 ± 0.63
323.15 K, 55000 kPa | 799.95 ± 0.66
323.15 K, 60000 kPa | 802.89 ± 0.69
323.15 K, 65000 kPa | 805.77 ± 0.72
328.15 K, 100 kPa | 754.6 ± 0.3
328.15 K, 5000 kPa | 759.51 ± 0.33
328.15 K, 10000 kPa | 764.08 ± 0.36
328.15 K, 15000 kPa | 768.39 ± 0.39
328.15 K, 20000 kPa | 772.51 ± 0.43
328.15 K, 25000 kPa | 776.42 ± 0.46
328.15 K, 30000 kPa | 780.18 ± 0.49
328.15 K, 35000 kPa | 783.75 ± 0.53
328.15 K, 40000 kPa | 787.17 ± 0.57
328.15 K, 45000 kPa | 790.5 ± 0.6
328.15 K, 50000 kPa | 793.7 ± 0.64
328.15 K, 55000 kPa | 796.82 ± 0.67
328.15 K, 60000 kPa | 799.82 ± 0.7
328.15 K, 65000 kPa | 802.72 ± 0.73
333.15 K, 100 kPa | 750.51 ± 0.3
333.15 K, 5000 kPa | 755.54 ± 0.33
333.15 K, 10000 kPa | 760.26 ± 0.36
333.15 K, 15000 kPa | 764.69 ± 0.4
333.15 K, 20000 kPa | 768.87 ± 0.43
333.15 K, 25000 kPa | 772.87 ± 0.46
333.15 K, 30000 kPa | 776.68 ± 0.5
333.15 K, 35000 kPa | 780.35 ± 0.53
333.15 K, 40000 kPa | 783.87 ± 0.57
333.15 K, 45000 kPa | 787.29 ± 0.61
333.15 K, 50000 kPa | 790.54 ± 0.64
333.15 K, 55000 kPa | 793.66 ± 0.68
333.15 K, 60000 kPa | 796.72 ± 0.71
333.15 K, 65000 kPa | 799.67 ± 0.74
